The values below are quoted from earlier work in US6127342A, “Method for preventing or treating a lung disease caused by active oxygen and free radical injury” (Teijin Limited, priority 1991, dated 2000).

The data set relates to glutathione peroxidase. As to conditions: Flohe, et al.; cited from earlier work.

As to `COC(=O)[C@H](CS)NC(=O)CC[C@H](N)C(=O)O`, the “efficiency as substrate of glutathione peroxidase compared with glutathione” value is listed as 20-30%.
